Measured values: publication PMC3174134, “Lucanthone and Its Derivative Hycanthone Inhibit Apurinic Endonuclease-1 (APE1) by Direct Protein Binding” (PLoS ONE, 2011)

What was measured:
APE1 [1] = biological target: T1, APE1 (Homo sapiens, UniProt P27695); assay: APE1 cleavage in whole cell extracts of U251 1-5 APE1 overexpressor clone, Western blot with protease inhibitor cocktail; parameters: the full length APE1 protein was successfully expressed and purified; made in house; host or cells: E. coli BL21/DE3; conditions: U251 1-5 whole cell extracts, 2 h, 37°C
T1 sequence (P27695 whole entry): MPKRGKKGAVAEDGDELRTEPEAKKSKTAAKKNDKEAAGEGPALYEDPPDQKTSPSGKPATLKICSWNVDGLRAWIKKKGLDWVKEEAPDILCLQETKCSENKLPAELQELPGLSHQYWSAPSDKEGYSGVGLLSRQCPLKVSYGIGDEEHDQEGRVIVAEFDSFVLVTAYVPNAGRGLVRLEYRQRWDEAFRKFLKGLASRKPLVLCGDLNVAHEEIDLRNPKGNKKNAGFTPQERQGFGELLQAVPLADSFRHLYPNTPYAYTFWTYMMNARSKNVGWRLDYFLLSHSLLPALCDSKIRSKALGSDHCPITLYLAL
Description: (§1) Total purified protein concentration was determined by the ratio of A280/A260. 250 ng of APE1 treated with lucanthone or hycanthone (0.05–100 µM) for 2 h at 37°C in final volume of 30 µl were mixed with an equal volume of gel loading buffer (0.001% bromophenol blue, 4% SDS, 10% 2-ME, 20% glycerol, and 125 mM Tris pH 6.8) and denatured at 95°C for 5 min. Total protein concentration in cell extracts was determined using the Bradford assay (BioRad, Hercules, CA) and 25 µg of total protein from soluble or insoluble cell fractions were mixed with an equal volume of gel loading buffer (0.001% bromophenol blue, 4% SDS, 10% 2-ME, 20% glycerol, and 125 mM Tris pH 6.8) and denatured at 95°C for 5 min. This mixture was separated by SDS-PAGE (4% stacking, 7.5% resolving gel) for 2–3 h at 40 mA on a BioRad MiniPROTEAN II Electrophoresis Cell. To detect proteins, proteins were transferred onto a trans-Blot nitrocellulose membrane (0.45 µm; BioRad) overnight at 4°C at 15 mA in standard Tris-Glycine buffer containing 20% ethanol. […] Chemi-luminescence was developed using an ECL kit according to the manufacturer's instructions and detected by exposing the blot to HyperfilmECL for 30 s–3 min. […]

tubulin = assay: Tubulin stability in U251 1-5 whole cell extracts, Western blot; conditions: lucanthone 2.5-100 µM; CRT at 200 µM
Description: as §1

APE1 [2] = biological target: T1, APE1; assay: MALDI-TOF analysis of APE1 degradation; parameters: the full length APE1 protein was successfully expressed and purified; made in house; host or cells: E. coli BL21/DE3; conditions: 100 µM drug
Description: 100 nM of APE1 protein was treated with 100 µM of lucanthone, hycanthone or CRT at 37°C for 2 h and 24 h and analyzed on sinipinic acid matrix on a Voyager-DE STR (Applied Biosystems) MALDI-TOF instrument at the Proteomics facility at SUNYSB in a linear mode.

Concentration causing cleavage of APE1 (APE1 [1]): 200 µM | Time at which APE1 degradation is seen by MALDI (APE1 [2]): 24 h | APE1 protein fragments by MALDI-TOF (APE1 [2]; 37°C, 2 or 24 h): much less cleavage of APE1 | Full length 35.5 kDa APE1 peak by MALDI-TOF (APE1 [2]; 37°C, 24 h): still an intact 35.5 kDa peak
Structure (SMILES): O=C(O)c1cc2cccc([N+](=O)[O-])c2[nH]1 [CRT0044876, 7-Nitroindole-2-carboxylic acid]
Effect on tubulin protein (tubulin): some shift in its migration
